In brackets after ≈: the same amount, converted by molar mass.
Columns and labels:
[1] = Toxicity in brine shrimp; format: organism-based; conditions: artemia, in vivo
A549 = assay: Cytotoxicity against human A549 cells after 7 days; format: functional; conditions: for EC50: Homo sapiens, A549, 168 h, read-out: ED50 (the source's name)
MCF7 = assay: Cytotoxicity against human MCF7 cells after 7 days; format: functional; conditions: MCF7, 168 h, read-out: ED50 (the source's name)
HT-29 = assay: Cytotoxicity against human HT-29 cells after 7 days; format: functional; conditions: for EC50: Homo sapiens, HT-29, 168 h, read-out: ED50 (the source's name)

Row | SMILES | LC50 [1] | EC50 (A549) | EC50 (MCF7) | EC50 (HT-29) | ED50 (A549) | ED50 (HT-29)
1 | CCCCCCCCCCCCCCC/C=C\CCCCC(N)=O | 2.45 µg/mL (≈ 7.26 µM) | 3.16 µg/mL (≈ 9.36 µM) | 2.91 µg/mL (≈ 8.62 µM) | < 0.01 µg/mL |  | 
2 | COc1c(OC)c2c(C)cc3c(O)cccc3c2[nH]c1=O [ASIMICILONE] | 2.15 µg/mL (≈ 7.54 µM) | 2.13 µg/mL (≈ 7.47 µM) | 7.22 µg/mL (≈ 25.3 µM) | 3.25 µg/mL (≈ 11.4 µM) |  | 
3 | CCCCCCCCCCC(O)C1CCC(C2CCC(C(O)CCCCCCCC[C@H](O)CC3=C[C@@H](C)OC3=O)O2)O1 (stereo partly drawn) [ASIMICIN] |  |  |  |  | 8.43 ×10⁻⁴ ug/ml | <1 ×10⁻¹⁵ ug/ml
4 | CCCCCCCCCC[C@@H](O)[C@H]1CC[C@H]([C@H]2CC[C@H]([C@H](O)CCCCCCCCCC[C@@H](O)CC3=C[C@H](C)OC3=O)O2)O1 [ASIMICIN] | 0.025 µg/mL (≈ 0.0401 µM) |  |  |  |  | 
5 | COc1cccc2c1C(=O)c1c(O)c3c(c(O)c1C2=O)C[C@@](O)(C(=O)CO)C[C@@H]3O[C@H]1C[C@H](N)[C@H](O)[C@H](C)O1 [DOXORUBICIN] | 0.088 µg/mL (≈ 0.162 µM) |  | 0.231 µg/mL (≈ 0.425 µM) | 0.00445 µg/mL (≈ 0.00819 µM) | 5.04 ×10⁻⁴ ug/ml | 
6 | CC[C@H](CC[C@@H](C)[C@H]1CC[C@H]2[C@@H]3CC=C4C[C@@H](O[C@@H]5O[C@H](CO)[C@@H](O)[C@H](O)[C@H]5O)CC[C@]4(C)[C@H]3CC[C@]12C)C(C)C [SITOGLUSIDE] | 0.14 µg/mL (≈ 0.243 µM) | 4.73 µg/mL (≈ 8.2 µM) | 44.4 µg/mL (≈ 77 µM) | 0.444 µg/mL (≈ 0.77 µM) |  | 
7 | COc1cc([C@H]2OC[C@H]3[C@@H]2CO[C@@H]3c2cc(OC)c(O)c(OC)c2)cc(OC)c1O [SYRINGARESINOL] | 0.65 µg/mL (≈ 1.55 µM) | 13.9 µg/mL (≈ 33.3 µM) | 30.3 µg/mL (≈ 72.4 µM) | 0.227 µg/mL (≈ 0.542 µM) |  | 
